US20260224588A1, “BENZODIAZEPINONE-DERIVED INHIBITORS OF EGFR AND HER2” (The Research Foundation for the State University of New York, priority 2023, published 2026)

Key:
Assay in all cases: KINOMEscan
Assay type in all cases: binding
Conditions in all cases: 1 μM of compound 4; read-out: POC
PIK3CA = PIK3CA (Homo sapiens, UniProt P42336)
PRKG1 = PRKG1 (Homo sapiens, UniProt Q13976)
IKK-beta = IKK-beta (Homo sapiens, UniProt O14920)
ACVR2A = ACVR2A (Homo sapiens, UniProt P27037)
DRAK2 = DRAK2 (Homo sapiens, UniProt O94768)
IGF1R = IGF1R (Homo sapiens, UniProt P08069)
PKN2 = PKN2 (Homo sapiens, UniProt Q16513)
NEK10 = NEK10 (Homo sapiens, UniProt Q6ZWH5)
NIM1 = target: T1, NIM1 (Homo sapiens, UniProt Q8IY84)
T1 construct: purchased Eurofins DiscoverX Corporation (KINOMEscan)

CSNK1D = CSNK1D (Homo sapiens, UniProt P48730)
MET = MET (Homo sapiens, UniProt P08581)
MYLK = MYLK (Homo sapiens, UniProt Q15746)
DCAMKL2 = DCAMKL2 (Homo sapiens, UniProt Q8N568)
PIP5K2C = PIP5K2C (Homo sapiens, UniProt Q8TBX8)
ITK = ITK (Homo sapiens, UniProt Q08881)
ZAK = target: T2, ZAK (Homo sapiens, UniProt Q9NYL2)
T2 construct: purchased Eurofins DiscoverX

CDC2L5 = CDC2L5 (Homo sapiens, UniProt Q14004)
PRKCI = PRKCI (Homo sapiens, UniProt P41743)
TRKA = target: T3, TRKA (Homo sapiens, UniProt P04629)
T3 construct: purchased Eurofins DiscoverX Corporation

[1] = target: T4, ABL1(Q252H)-phosphorylated (Homo sapiens, UniProt P00519, Q252H)
T4 construct: purchased Eurofins DiscoverX Corporation

FER = target: T5, FER (Homo sapiens, UniProt P16591)
T5 construct: purchased Eurofins DiscoverX Corporation

BMPR2 = BMPR2 (Homo sapiens, UniProt Q13873)
RIOK1 = target: T6, RIOK1 (Homo sapiens, UniProt Q9BRS2)
T6 construct: purchased Eurofins DiscoverX Corporation (KINOMEscan screening service)

[2] = target: T7, RSK4(Kin.Dom.2-C-terminal) (Homo sapiens, UniProt Q9UK32)
T7 construct: RSK4(Kin.Dom.2-C-terminal); purchased Eurofins DiscoverX (KINOMEscan service)

BTK = BTK (Homo sapiens, UniProt Q06187)
[3] = target: JAK1(JH2domain-pseudokinase) (Homo sapiens, UniProt P23458)
DRAK1 = DRAK1 (Homo sapiens, UniProt Q9UEE5)
HASPIN = target: T8, HASPIN (Homo sapiens, UniProt Q8TF76)
T8 construct: purchased Eurofins DiscoverX Corporation

CAMKK1 = CAMKK1 (Homo sapiens, UniProt Q8N5S9)
ASK2 = ASK2 (Homo sapiens, UniProt O95382)
HIPK1 = target: T9, HIPK1 (Homo sapiens, UniProt Q86Z02)
T9 construct: purchased Eurofins DiscoverX Corporation

MAPKAPK2 = MAPKAPK2 (Homo sapiens, UniProt P49137)
TEC = target: T10, TEC (Homo sapiens, UniProt P42680)
T10 construct: purchased Eurofins DiscoverX Corporation

FLT3(K663Q) = target: T11, FLT3(K663Q) (Homo sapiens, UniProt P36888, K663Q)
T11 construct: purchased Eurofins DiscoverX Corporation

CHEK1 = CHEK1 (Homo sapiens, UniProt O14757)
LATS2 = LATS2 (Homo sapiens, UniProt Q9NRM7)
[4] = target: T12, ABL1(H396P)-nonphosphorylated (Homo sapiens, UniProt P00519, H396P)
T12 construct: purchased Eurofins DiscoverX Corporation

CDKL1 = CDKL1 (Homo sapiens, UniProt Q00532)
GSK3A = target: T13, GSK3A (Homo sapiens, UniProt P49840)
T13 construct: purchased Eurofins DiscoverX Corporation

T3 sequence (P04629 33-796): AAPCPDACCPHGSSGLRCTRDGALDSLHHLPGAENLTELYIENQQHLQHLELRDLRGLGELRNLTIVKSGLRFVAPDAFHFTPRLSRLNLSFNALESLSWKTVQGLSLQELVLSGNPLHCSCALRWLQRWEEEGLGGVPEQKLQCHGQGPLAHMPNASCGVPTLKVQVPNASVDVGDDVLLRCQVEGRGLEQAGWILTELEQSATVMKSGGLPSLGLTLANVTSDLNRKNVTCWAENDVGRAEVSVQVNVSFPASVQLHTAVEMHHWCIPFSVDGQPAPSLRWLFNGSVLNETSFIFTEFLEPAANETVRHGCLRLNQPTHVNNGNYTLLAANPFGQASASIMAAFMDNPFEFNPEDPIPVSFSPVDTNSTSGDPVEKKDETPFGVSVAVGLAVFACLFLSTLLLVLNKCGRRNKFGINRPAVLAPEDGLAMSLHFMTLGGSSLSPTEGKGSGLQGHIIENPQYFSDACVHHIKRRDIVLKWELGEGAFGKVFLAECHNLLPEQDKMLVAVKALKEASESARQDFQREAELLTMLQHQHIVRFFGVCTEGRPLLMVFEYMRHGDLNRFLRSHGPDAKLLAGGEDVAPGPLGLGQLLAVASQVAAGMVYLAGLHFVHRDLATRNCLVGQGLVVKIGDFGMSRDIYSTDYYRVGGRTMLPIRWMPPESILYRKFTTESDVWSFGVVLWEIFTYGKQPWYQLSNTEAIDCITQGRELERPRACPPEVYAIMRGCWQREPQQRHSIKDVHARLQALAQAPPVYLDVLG
T5 sequence (P16591 whole entry): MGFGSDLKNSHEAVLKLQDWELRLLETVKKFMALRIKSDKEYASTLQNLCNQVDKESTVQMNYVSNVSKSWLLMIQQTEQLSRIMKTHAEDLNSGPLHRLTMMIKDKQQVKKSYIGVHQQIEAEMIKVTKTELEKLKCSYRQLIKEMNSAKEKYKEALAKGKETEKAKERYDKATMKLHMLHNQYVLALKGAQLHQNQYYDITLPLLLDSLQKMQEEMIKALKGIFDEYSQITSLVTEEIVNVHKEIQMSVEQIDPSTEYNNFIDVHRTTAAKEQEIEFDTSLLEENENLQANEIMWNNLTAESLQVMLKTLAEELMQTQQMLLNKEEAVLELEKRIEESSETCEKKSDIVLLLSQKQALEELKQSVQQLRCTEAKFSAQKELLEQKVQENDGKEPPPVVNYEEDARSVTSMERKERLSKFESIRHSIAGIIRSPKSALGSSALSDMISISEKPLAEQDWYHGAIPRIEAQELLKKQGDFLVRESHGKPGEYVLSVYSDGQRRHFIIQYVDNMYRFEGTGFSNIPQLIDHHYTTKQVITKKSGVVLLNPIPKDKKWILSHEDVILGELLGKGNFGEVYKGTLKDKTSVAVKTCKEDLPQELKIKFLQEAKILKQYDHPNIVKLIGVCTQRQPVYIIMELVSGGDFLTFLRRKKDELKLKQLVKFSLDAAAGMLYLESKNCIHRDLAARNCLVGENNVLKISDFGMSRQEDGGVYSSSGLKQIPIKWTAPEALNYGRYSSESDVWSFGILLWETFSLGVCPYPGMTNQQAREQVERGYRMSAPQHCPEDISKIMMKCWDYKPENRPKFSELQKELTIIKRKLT
Chain of PRKCI (P41743 whole entry): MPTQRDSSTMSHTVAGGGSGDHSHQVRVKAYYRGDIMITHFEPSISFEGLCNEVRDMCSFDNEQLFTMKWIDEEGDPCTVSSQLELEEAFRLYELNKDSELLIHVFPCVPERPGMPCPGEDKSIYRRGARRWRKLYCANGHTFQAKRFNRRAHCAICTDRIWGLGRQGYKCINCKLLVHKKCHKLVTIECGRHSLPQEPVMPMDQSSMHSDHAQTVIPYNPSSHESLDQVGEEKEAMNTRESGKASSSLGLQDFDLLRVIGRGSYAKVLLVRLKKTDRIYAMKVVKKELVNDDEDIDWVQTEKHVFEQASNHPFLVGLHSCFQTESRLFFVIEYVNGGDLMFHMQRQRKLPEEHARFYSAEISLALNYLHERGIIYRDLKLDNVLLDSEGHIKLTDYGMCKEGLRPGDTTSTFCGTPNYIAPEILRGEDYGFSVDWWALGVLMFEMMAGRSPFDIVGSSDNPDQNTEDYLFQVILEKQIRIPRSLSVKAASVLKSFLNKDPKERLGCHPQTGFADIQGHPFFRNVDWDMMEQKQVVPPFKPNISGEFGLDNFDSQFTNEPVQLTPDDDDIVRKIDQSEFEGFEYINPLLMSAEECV
Chain of BTK (Q06187 whole entry): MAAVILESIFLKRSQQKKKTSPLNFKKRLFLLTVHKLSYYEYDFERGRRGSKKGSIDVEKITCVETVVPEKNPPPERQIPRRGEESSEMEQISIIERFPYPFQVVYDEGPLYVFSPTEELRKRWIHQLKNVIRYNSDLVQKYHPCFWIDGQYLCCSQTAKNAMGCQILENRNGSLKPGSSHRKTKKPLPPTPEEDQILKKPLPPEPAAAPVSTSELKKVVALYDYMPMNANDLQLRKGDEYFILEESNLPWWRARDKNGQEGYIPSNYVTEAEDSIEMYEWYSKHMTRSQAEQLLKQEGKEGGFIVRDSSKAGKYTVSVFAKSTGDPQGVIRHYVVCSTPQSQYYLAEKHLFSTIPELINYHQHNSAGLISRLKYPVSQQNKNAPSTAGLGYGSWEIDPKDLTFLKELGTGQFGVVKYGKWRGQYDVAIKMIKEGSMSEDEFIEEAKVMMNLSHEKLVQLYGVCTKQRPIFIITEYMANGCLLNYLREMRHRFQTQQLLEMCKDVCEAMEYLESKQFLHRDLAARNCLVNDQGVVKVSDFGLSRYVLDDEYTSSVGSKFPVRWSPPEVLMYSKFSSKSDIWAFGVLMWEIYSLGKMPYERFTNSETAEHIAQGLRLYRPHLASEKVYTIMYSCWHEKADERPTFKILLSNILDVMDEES
Chain of MAPKAPK2 (P49137 whole entry): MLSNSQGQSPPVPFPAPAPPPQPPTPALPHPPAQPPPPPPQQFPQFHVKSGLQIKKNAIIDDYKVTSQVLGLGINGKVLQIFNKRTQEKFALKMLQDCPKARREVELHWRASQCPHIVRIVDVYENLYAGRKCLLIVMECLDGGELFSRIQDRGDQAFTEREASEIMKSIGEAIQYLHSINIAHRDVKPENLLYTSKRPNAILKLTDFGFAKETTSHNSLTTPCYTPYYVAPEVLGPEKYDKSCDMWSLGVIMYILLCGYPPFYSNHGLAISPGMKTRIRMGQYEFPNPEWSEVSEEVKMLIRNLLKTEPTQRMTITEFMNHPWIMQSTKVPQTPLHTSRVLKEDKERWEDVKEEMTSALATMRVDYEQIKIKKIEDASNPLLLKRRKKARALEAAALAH
Chain of PIP5K2C (Q8TBX8 whole entry): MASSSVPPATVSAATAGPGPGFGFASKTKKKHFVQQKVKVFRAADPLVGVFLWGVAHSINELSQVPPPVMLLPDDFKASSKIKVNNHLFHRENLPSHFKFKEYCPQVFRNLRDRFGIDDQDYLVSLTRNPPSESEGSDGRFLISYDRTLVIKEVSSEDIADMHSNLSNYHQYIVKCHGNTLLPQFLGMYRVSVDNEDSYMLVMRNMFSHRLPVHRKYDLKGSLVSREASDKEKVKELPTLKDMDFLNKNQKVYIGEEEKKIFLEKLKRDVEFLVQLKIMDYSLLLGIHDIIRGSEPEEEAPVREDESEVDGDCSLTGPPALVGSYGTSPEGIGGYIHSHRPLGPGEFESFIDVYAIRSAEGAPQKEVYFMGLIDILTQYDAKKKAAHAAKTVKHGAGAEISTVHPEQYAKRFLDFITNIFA
Chain of CSNK1D (P48730 whole entry): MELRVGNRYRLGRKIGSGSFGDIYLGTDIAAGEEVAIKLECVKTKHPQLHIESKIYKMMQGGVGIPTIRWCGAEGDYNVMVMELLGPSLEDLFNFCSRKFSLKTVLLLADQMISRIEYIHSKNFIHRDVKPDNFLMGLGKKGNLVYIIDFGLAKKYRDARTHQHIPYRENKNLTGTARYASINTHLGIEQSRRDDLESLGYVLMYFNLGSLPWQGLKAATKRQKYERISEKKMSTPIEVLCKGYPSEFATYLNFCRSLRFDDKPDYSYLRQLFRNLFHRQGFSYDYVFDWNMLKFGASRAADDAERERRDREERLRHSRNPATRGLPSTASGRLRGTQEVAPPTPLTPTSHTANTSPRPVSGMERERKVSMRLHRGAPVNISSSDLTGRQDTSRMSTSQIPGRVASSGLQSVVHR
Chain of CDKL1 (Q00532 whole entry): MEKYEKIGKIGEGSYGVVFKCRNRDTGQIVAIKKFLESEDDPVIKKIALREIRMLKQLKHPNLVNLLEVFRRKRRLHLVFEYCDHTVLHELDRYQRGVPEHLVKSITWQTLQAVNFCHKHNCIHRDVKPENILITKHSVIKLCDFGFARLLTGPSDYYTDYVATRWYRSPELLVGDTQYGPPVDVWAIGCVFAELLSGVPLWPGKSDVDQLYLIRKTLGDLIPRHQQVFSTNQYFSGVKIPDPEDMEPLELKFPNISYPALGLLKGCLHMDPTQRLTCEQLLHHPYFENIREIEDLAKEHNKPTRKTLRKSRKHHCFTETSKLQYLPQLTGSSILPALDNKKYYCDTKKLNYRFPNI
Chain of DRAK1 (Q9UEE5 whole entry): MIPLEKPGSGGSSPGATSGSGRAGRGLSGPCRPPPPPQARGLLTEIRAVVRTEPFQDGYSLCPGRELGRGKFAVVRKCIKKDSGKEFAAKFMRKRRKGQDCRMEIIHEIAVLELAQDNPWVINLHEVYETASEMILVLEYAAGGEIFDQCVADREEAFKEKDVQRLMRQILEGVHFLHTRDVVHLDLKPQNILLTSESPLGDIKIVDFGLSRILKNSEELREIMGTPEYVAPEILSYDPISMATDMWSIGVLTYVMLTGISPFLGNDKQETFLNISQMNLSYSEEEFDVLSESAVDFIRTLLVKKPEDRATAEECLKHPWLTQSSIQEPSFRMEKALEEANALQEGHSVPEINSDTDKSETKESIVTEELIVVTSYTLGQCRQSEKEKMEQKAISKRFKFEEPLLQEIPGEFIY

Q: Which remaining binding at 1 µM (PIK3CA) does the source give for `C=CC(=O)Nc1ccc(OC)c(Nc2cc(-c3[nH]c(CC)nc3-c3cccc(NC(=O)c4cccc5c4NC(=O)c4ccccc4N5)c3)ccn2)c1` [Compound 4, N-(3-(5-(2-((5-Acrylamido-2-methoxyphenyl)amino)pyridin-4-yl)-2-ethyl-1H-imidazol-4-yl)phenyl)-11-oxo-10,11-dihydro-5H-dibenzo[b,e][1,4]diazepine-9-carboxamide] here?
A: The remaining binding at 1 µM was 70%.

Q: What about the remaining binding at 1 µM (PRKG1) of the same compound?
A: Its remaining binding at 1 µM is 100%.

Q: And the remaining binding at 1 µM (IKK-beta)?
A: Its remaining binding at 1 µM is 88%.

Q: And the remaining binding at 1 µM (ACVR2A)?
A: Its remaining binding at 1 µM is 77%.

Q: What about the remaining binding at 1 µM (DRAK2) of the same compound?
A: The remaining binding at 1 µM was 94%.

Q: What about the remaining binding at 1 µM (IGF1R) of the same compound?
A: The remaining binding at 1 µM was 90%.

Q: What about the remaining binding at 1 µM (PKN2) of the same compound?
A: Its remaining binding at 1 µM is 100%.

Q: And the remaining binding at 1 µM (NEK10)?
A: Its remaining binding at 1 µM is 86%.

Q: And the remaining binding at 1 µM (NIM1)?
A: Its remaining binding at 1 µM is 78%.

Q: What about the remaining binding at 1 µM (CSNK1D) of the same compound?
A: Its remaining binding at 1 µM is 87%.

Q: And the remaining binding at 1 µM (MET)?
A: The remaining binding at 1 µM was 69%.

Q: What about the remaining binding at 1 µM (MYLK) of the same compound?
A: The remaining binding at 1 µM was 84%.

Q: What about the remaining binding at 1 µM (DCAMKL2) of the same compound?
A: Its remaining binding at 1 µM is 100%.

Q: What about the remaining binding at 1 µM (PIP5K2C) of the same compound?
A: Its remaining binding at 1 µM is 66%.

Q: And the remaining binding at 1 µM (ITK)?
A: The remaining binding at 1 µM was 87%.

Q: And the remaining binding at 1 µM (ZAK)?
A: The remaining binding at 1 µM was 87%.

Q: What about the remaining binding at 1 µM (CDC2L5) of the same compound?
A: Its remaining binding at 1 µM is 74%.

Q: And the remaining binding at 1 µM (PRKCI)?
A: The remaining binding at 1 µM was 100%.

Q: What about the remaining binding at 1 µM (TRKA) of the same compound?
A: Its remaining binding at 1 µM is 77%.

Q: What about the remaining binding at 1 µM [1] of the same compound?
A: The remaining binding at 1 µM was 90%.

Q: And the remaining binding at 1 µM (FER)?
A: The remaining binding at 1 µM was 36%.

Q: And the remaining binding at 1 µM (BMPR2)?
A: The remaining binding at 1 µM was 88%.

Q: And the remaining binding at 1 µM (RIOK1)?
A: The remaining binding at 1 µM was 100%.

Q: And the remaining binding at 1 µM [2]?
A: Its remaining binding at 1 µM is 80%.

Q: And the remaining binding at 1 µM (BTK)?
A: Its remaining binding at 1 µM is 54%.

Q: What about the remaining binding at 1 µM [3] of the same compound?
A: Its remaining binding at 1 µM is 83%.

Q: What about the remaining binding at 1 µM (DRAK1) of the same compound?
A: Its remaining binding at 1 µM is 84%.

Q: What about the remaining binding at 1 µM (HASPIN) of the same compound?
A: The remaining binding at 1 µM was 100%.

Q: And the remaining binding at 1 µM (CAMKK1)?
A: Its remaining binding at 1 µM is 85%.

Q: And the remaining binding at 1 µM (ASK2)?
A: Its remaining binding at 1 µM is 100%.

Q: What about the remaining binding at 1 µM (HIPK1) of the same compound?
A: The remaining binding at 1 µM was 51%.

Q: What about the remaining binding at 1 µM (MAPKAPK2) of the same compound?
A: Its remaining binding at 1 µM is 100%.

Q: And the remaining binding at 1 µM (TEC)?
A: The remaining binding at 1 µM was 45%.

Q: What about the remaining binding at 1 µM (FLT3(K663Q)) of the same compound?
A: Its remaining binding at 1 µM is 87%.

Q: And the remaining binding at 1 µM (CHEK1)?
A: The remaining binding at 1 µM was 100%.

Q: And the remaining binding at 1 µM (LATS2)?
A: Its remaining binding at 1 µM is 62%.

Q: And the remaining binding at 1 µM [4]?
A: The remaining binding at 1 µM was 97%.

Q: And the remaining binding at 1 µM (CDKL1)?
A: Its remaining binding at 1 µM is 100%.

Q: And the remaining binding at 1 µM (GSK3A)?
A: Its remaining binding at 1 µM is 65%.
